Laboratory results reported in patent publication US20040152708A1, “Trans-9,10-dehydroepothilone C and D, analogs thereof and methods of making the same” (priority 2002, published 2004).
pIC50: −log10 of the molar value. Values after ≈ are worked out from the molar mass of the structure shown.

Key:
[1] = Compound solubility in phosphate-buffered saline; format: physicochemical; details: aqueous buffer, kinetic from dmso stock; 5 μL of 20 mg/mL DMSO stock in 95 μL phosphate-buffered saline, 0.45 micron filter, HPLC
Method: Compound solubility was determined as follows: 5 μL of stock solution (at 20 mg/mL in DMSO) was added to 95 μL of phosphate-buffered saline. After being vortexed for about 10 seconds, the solution/suspension was filtered through a 0.45 micron filter and the amount of analyte was quantitated by HPLC. Solubilities (mg/mL) determined were as follows: epothilone D, <0.06; trans-9,10-dehydroepothilone D, <0.06; 21-OH-26-F3-trans-9,10-dehydroepothilone D, 0.1; 21-amino-trans-9,10-dehydroepothilone D, >0.6; 21-amino-26-F3-trans-9,10-dehydroepothilone D, >0.6; 26-F3-trans-9,10-dehydroepothilone D, <0.06; 21-OH-trans-9,10-dehydroepothilone D, 0.1; KOSN 1635, <0.02; KOSN 1632, 0.12.

[2] = tested on: multi-drug resistant breast carcinoma cell line NCI/ADR; assay: SRB cytotoxicity assay, NCI/ADR; format: cell-based, human; details: Homo sapiens, NCI/ADR-RES, 72 h; Table 1; 3 days, SRB; read-out: IC50 NCI/ADR
Method: (§1) Compounds of the invention may be screened for cytotoxicity using conventional assays well known to those skilled in the art. For example, cytotoxicity of the compounds may be determined by the SRB assay as disclosed in Skehan et al., J. Natl. Cancer Inst. 82:1107-1112 (1990), which is incorporated herein by reference. In the SRB assay, the following cultured cells are trypsinized, counted and diluted to the following concentrations per 100 μl with growth medium: MCF-7, 5000; NCI/ADR-Res, 7500; NCI-H460, 5000; A549, 5000; Skov3, 7500; and SF-268, 7500. The cells are seeded at 100 μl/well in 96-well microtiter plates. Twenty-four hours later, 100 μl of a test epothilone compound of the invention (ranging in concentration from 1000 nM to 0.001 nM diluted in growth medium) is added to each well. After incubation, with the compound for a period of days, the cells are fixed with 100 μl of 10% trichloroacetic acid (“TCA”) at 4 degrees for 1 hour, and stained with 0.2% sulforhodamine B (SRB)/1% acetic acid, and the bound SRB is then extracted with 200 μl of 10 mM Tris base. The amount of bound dye is determined by OD 515 nm, which correlates to the total cellular protein contents. The data is analyzed using standard statistical methodologies (such as those available with the software sold as KALEIDA GRAPH® by Synergy Software of Reading, Pa.) and the IC50s are calculated.
(§2) Human breast carcinoma cell line MCF-7, multi-drug resistant breast carcinoma cell line NCI/ADR, were obtained from the National Cancer Institute. Human non-small cell lung cancer cell line A549 and human ovarian cancer cell line SKOV-3 were obtained from American Type Culture Collection (Manassas, Va.). All cell lines were maintained in RPMI-1640 medium (Gibco/BRL, Rockville, Md.) supplemented with 2 mM L-glutamine, 25 mM HEPES and 10% FBS (Hyclone, Logan, Utah). Cells were maintained in a humidified incubator at 37° C. in 5% CO2.
(§3) Tumor cells were seeded in 100 μl at 5000 (MCF-7), 7500 (NCI/ADR), 5000 (A549) and 7500 (SKOV3) cells per well in 96-well plates. Cells were allowed to adhere for 24 hours. Each compound ranging from 0.001 to 1000 nM in 100 μl was added to cells in duplicate wells. After 3 days, cells were fixed at 4° C. for 1 hour with 10% trichloroacetic acid and then stained with 0.2% sulforhodamine B (SRB)/1% acetic acid for 20 minutes at room temperature. The unbound dye was rinsed away with 1% acetic acid, and the bounded SRB was then extracted with 200 μl of 10 mM Tris base. The absorbance was measured at 515 nm using a 96-well microtiter plate reader (Spectra Max 250, Molecular Devices). The IC50 values were calculated using a KaleidaGraph program. The experiments were performed twice.

[3] = target: T1, CYP2C19 (Homo sapiens, UniProt P33261); assay: Cytochrome P450 inhibition, CYP2C19; format: in vitro ADME; details: human
T1 construct: purchased BD GenTest, Woburn, Mass

[4] = target: T2, CYP2C9 (Homo sapiens, UniProt P11712); assay: Cytochrome P450 inhibition, CYP2C9; format: in vitro ADME; details: human
T2 construct: purchased BD GenTest, Woburn, Mass

[5] = Half-life in mouse plasma; details: fresh mouse plasma
Method: […] At Time Zero, aliquotted 75 μl from each sample and added 150 μl of acetonitrile. Centrifuged the white precipitate at 13500 rpm for 3 minutes. Transferred all the clear supernatant into another microcentrifuge tube and repeated the centrifuging step (13500 rpm/3 min). Carefully pipetted 150 μl of the clear supernatant into labeled HPLC sample tubes and tried to avoid pipetting any protein pellets. The samples were analyzed by HPLC to measure remaining compound at each time point by comparison with authentic standards.

[6] = tested on: human ovarian cancer cell line SKOV-3; assay: SRB cytotoxicity assay, SKOV3; format: cell-based; details: Homo sapiens, SK-OV-3, 72 h; Table 1; 3 days, SRB; read-out: IC50 SKOV3
Method: as §1, §2, §3

[7] = Half-life in human plasma; details: fresh human plasma
Method: Half-lives of compounds in fresh mouse and human plasma were determined by dissolving the compounds in DMSO and adding aliquots to samples of mouse or human plasma. At Time Zero, aliquotted 75 μl from each sample and added 150 μl of acetonitrile. Centrifuged the white precipitate at 13500 rpm for 3 minutes. Transferred all the clear supernatant into another microcentrifuge tube and repeated the centrifuging step (13500 rpm/3 min). Carefully pipetted 150 μl of the clear supernatant into labeled HPLC sample tubes and tried to avoid pipetting any protein pellets. The samples were analyzed by HPLC to measure remaining compound at each time point by comparison with authentic standards.

[8] = Plasma protein binding (ultrafiltration); format: in vitro ADME; details: mouse or human plasma (species not given), 37° C.
Method: Plasma protein binding studies were performed as follows. Compounds were dissolved in DMSO, then diluted into either fresh or thawed samples of mouse or human plasma and incubated at 37° C. Time points of 50 μL were mixed with 100 μl of acetonitrile and centrifuged at ˜14000 rpm for 3 minutes. A 100 μL aliquot was removed from the supernatant and set aside for analysis to indicate compound in the total fraction. The remaining supernatant was transferred onto a Microcon ultrafiltration device fitted with a YM10 membrane and centrifuged to separate protein-bound material. A 50 μL aliquot of the protein-free filtrate was mixed with 100 μL of acetonitrile, centrifuged at ˜14000 rpm for 3 minutes, then 100 μL of the supernatant was collected and analyzed to determine the amount of compound not protein bound. The amount of compound in the total sample and in the protein-free fraction were determined by HPLC analysis against authentic standards.

[9] = target: T3, CYP3A4 (Homo sapiens, UniProt P08684); assay: Cytochrome P450 inhibition (BD GenTest kit, BFC substrate), CYP3A4; format: in vitro ADME
T3 construct: purchased BD GenTest, Woburn, Mass
Text: Following the procedure of Examples 39 (when R=methyl) and 42 (when R=CF3), the additional compounds shown in Table 2 were made by replacing (2-(tert-butyldimethyl-silyloxy)-methylthiazol-4-yl)methyltri-n-butyl-phosphonium chloride with the corresponding phosphonium chloride. Cytotoxicity data (Table 2) was obtained as described in Example 48. Cytochrome P450 inhibition data (Table 3) was obtained using the initial rate method against BFC substrate.
Cytochrome P450 inhibition measurements were performed using a commercially-available kit (BD GenTest, Woburn, Mass.), using BFC as substrate against CYP3A4.

[10] = tested on: Human breast carcinoma cell line MCF-7; assay: SRB cytotoxicity assay, MCF-7; format: cell-based; details: Homo sapiens, MCF7, 72 h; Table 1; 3 days, SRB; read-out: IC50 MCF-7
Method: as §1, §2, §3

[11] = tested on: Human non-small cell lung cancer cell line A549; assay: SRB cytotoxicity assay, A549; format: cell-based; details: Homo sapiens, A549, 72 h; Table 1; 3 days, SRB; read-out: IC50 A549
Method: as §1, §2, §3

T2 sequence (P11712 whole entry): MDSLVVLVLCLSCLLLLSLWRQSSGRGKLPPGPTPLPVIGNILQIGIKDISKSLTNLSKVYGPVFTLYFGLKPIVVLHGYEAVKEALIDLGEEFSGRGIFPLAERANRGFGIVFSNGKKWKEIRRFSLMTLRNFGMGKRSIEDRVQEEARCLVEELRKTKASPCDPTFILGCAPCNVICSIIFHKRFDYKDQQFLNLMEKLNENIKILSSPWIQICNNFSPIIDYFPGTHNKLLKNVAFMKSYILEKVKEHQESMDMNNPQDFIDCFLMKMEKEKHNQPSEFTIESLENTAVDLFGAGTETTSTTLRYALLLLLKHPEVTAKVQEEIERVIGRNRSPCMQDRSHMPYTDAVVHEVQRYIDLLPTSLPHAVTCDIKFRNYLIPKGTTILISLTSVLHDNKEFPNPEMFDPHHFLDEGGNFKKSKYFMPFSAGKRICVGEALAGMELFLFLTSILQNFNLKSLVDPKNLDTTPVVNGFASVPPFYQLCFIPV
T3 sequence (P08684 whole entry): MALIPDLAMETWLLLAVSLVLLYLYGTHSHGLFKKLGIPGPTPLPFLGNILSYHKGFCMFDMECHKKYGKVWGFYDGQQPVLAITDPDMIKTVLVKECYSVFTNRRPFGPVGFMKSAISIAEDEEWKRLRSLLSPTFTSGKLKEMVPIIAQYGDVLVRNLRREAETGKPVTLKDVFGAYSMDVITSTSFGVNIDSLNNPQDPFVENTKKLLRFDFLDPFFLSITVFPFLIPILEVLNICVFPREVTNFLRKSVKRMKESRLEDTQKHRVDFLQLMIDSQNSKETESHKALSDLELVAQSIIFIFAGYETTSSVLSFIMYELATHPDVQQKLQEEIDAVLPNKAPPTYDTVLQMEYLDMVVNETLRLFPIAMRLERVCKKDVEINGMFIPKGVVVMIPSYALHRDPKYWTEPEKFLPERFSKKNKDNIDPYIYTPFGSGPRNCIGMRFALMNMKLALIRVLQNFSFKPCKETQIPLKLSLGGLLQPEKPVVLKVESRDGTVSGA
T1 sequence (P33261 whole entry): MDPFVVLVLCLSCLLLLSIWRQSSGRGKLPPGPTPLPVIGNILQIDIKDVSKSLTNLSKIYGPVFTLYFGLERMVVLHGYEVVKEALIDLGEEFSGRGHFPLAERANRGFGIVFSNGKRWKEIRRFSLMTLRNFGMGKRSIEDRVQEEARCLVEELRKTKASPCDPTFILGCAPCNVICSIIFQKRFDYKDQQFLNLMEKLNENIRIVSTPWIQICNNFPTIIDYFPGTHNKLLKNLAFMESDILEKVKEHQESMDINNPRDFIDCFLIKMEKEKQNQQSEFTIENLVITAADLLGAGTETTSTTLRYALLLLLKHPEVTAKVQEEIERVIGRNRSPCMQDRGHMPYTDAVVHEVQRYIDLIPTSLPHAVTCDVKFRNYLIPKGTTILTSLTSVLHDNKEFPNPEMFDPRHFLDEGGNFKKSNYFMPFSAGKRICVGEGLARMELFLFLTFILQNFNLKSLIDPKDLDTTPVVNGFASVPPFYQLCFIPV

| SMILES | solubility [1] [µg/mL] | pIC50 [2] | pIC50 [3] | pIC50 [4] | half-life [5] [h] | pIC50 [6] | half-life [7] [h] | percentage of compound protein bound [8] [%] | pIC50 [9] | pIC50 [10] | pIC50 [11] |
| --- | --- | --- | --- | --- | --- | --- | --- | --- | --- | --- | --- |
| C/C1=C/C[C@@H](/C(C)=C/c2csc(CN)n2)OC(=O)C[C@H](O)C(C)(C)C(=O)[C@H](C)[C@@H](O)[C@@H](C)/C=C/C1 [21-NH2 9,10-dehydroepothilone D, 21-amino-9,10-dehydro-epothilone D] | > 600 | 7.60 | 6.20 | 6.08 | 0.983 | 8.24 | > 24 | 89.5 | 6.21 | 8.49 | 8.23 |
| C/C(=C\c1csc(C)n1)[C@@H]1C/C=C(/C(F)(F)F)C/C=C/[C@H](C)[C@H](O)[C@@H](C)C(=O)C(C)(C)[C@@H](O)CC(=O)O1 (relative stereo) [26-trifluoro 9,10-dehydroepothilone D, 26-trifluoro-trans-9,10-dehydroepothilone D, reference compound] | < 60 | 7.48 | 5.49 | 4.84 | 2.72 | 7.66 | > 24 | 96.5 | 5.70 | 8.28 | 7.96 |
| C/C(=C\c1csc(CO)n1)[C@@H]1C/C=C(/C(F)(F)F)C/C=C/[C@H](C)[C@H](O)[C@@H](C)C(=O)C(C)(C)[C@@H](O)CC(=O)O1 [21-hydroxy-9,10-dehydro-26-trifluoroepothilone D] | 100 (≈ 179 µM) | 7.19 | 4.69 | 4.76 | 6.32 | 8.10 | > 24 | 92.8 | 6.00 | 8.44 | 8.21 |
| C/C1=C/C[C@@H](/C(C)=C/c2csc(CO)n2)OC(=O)C[C@H](O)C(C)(C)C(=O)[C@H](C)[C@@H](O)[C@@H](C)/C=C/C1 [21-OH 9,10-dehydroepothilone D, 21-hydroxy-9,10-dehydro-epothilone D] | 100 (≈ 198 µM) | 7.85 | 5.25 | 4.66 | 17.6 | 8.24 | > 24 | 94.2 | 6.10 | 8.64 | 8.42 |
| C/C1=C/C[C@@H](/C(C)=C/c2nc3ccccc3s2)OC(=O)C[C@H](O)C(C)(C)C(=O)[C@H](C)[C@@H](O)[C@@H](C)/C=C/C1 [KOSN 1635, 17-des(2-methyl-4-thiazolyl)-17-(2-benzothiazolyl)-9,10-dehydropeothilone D] | < 20 | 8.25 | 5.49 | 5.39 | 0.967 | 8.47 | > 24 | 99.7 | 5.51 | 8.96 | 8.38 |
